Test results taken from US8119643B2, “Benzoimidazolyl-pyrazine compounds for inflammation and immune-related uses” (Synta Pharmaceuticals Corp., priority 2006, dated 2012).

The molecules below were run on IL-2 production (assay: Inhibition of IL-2 production in PHA-activated Jurkat cells (ELISA)). Conditions: Homo sapiens, PHA 2.5 μg/mL, 20 hours, IL-2 ELISA.
Type: cell-based
Description: Jurkat cells were placed in a 96 well plate (0.5 million cells per well in 1% FBS medium) then a test compound of this invention was added at different concentrations. After 10 minutes, the cells were activated with PHA (final concentration 2.5 μg/mL) and incubated for 20 hours at 37° C. under CO2. The final volume was 200 μL. Following incubation, the cells were centrifuged and the supernatants were collected and stored at −70° C. prior to assaying for IL-2 production. A commercial ELISA kit (IL-2 Eli-pair, Diaclone Research, Besancon, France) was used to detect production of IL-2, from which dose response curves were obtained. The IC50 value was calculated as the concentration at which 50% of maximum IL-2 production after stimulation was inhibited versus a non-stimulation control.

Row | Structure (SMILES) | IC50
1 | COc1ccc2c(c1)nc(C(F)(F)F)n2-c1cnc(NC(=O)c2ccccc2OC)cn1 [Compound 111, 2-Methoxy-N-[5-(5-methoxy-2-trifluoromethyl-benzoimidazol-1-yl)-pyrazin-2-yl]-benzamide] | > 1000 nM
2 | COc1ccc2c(c1)nc(C(F)(F)F)n2-c1cnc(NC(=O)c2cccc(I)c2)cn1 [Compound 112, 3-Iodo-N-[5-(5-methoxy-2-trifluoromethyl-benzoimidazol-1-yl)-pyrazin-2-yl]-benzamide] | 173 nM
3 | COc1ccc2c(c1)nc(C(F)(F)F)n2-c1cnc(NC(=O)c2cccc(Cl)c2Cl)cn1 [Compound 113, 2,3-Dichloro-N-[5-(5-methoxy-2-trifluoromethyl-benzoimidazol-1-yl)-pyrazin-2-yl]-benzamide] | 22 nM
4 | CCOC(=O)c1cccc(C(=O)Nc2cnc(-n3c(C(F)(F)F)nc4cc(OC)ccc43)cn2)c1 [Compound 114, N-[5-(5-Methoxy-2-trifluoromethyl-benzoimidazol-1-yl)-pyrazin-2-yl]-isophthalamic acid ethyl ester] | 88 nM
5 | COc1ccc2c(c1)nc(C(F)(F)F)n2-c1cnc(NCc2ccccc2)cn1 [Compound 115, Benzyl-[5-(5-methoxy-2-trifluoromethyl-benzoimidazol-1-yl)-pyrazin-2-yl]-amine] | > 1000 nM
6 | COc1ccc2c(c1)nc(C(F)(F)F)n2-c1cnc(NC(=O)c2cccc(C)c2)cn1 [Compound 116, N-[5-(5-Methoxy-2-trifluoromethyl-benzoimidazol-1-yl)-pyrazin-2-yl]-3-methyl-benzamide] | 170 nM
7 | CCCCc1ccc(C(=O)Nc2cnc(-n3c(C(F)(F)F)nc4cc(OC)ccc43)cn2)cc1 [Compound 117, 4-Butyl-N-[5-(5-methoxy-2-trifluoromethyl-benzoimidazol-1-yl)-pyrazin-2-yl]-benzamide] | 81 nM
8 | COc1ccc2c(c1)nc(C(F)(F)F)n2-c1cnc(NC(=O)c2ccc(C)cc2)cn1 [Compound 118, N-[5-(5-Methoxy-2-trifluoromethyl-benzoimidazol-1-yl)-pyrazin-2-yl]-4-methyl-benzamide] | 40 nM
9 | COc1ccc2c(c1)nc(C(F)(F)F)n2-c1cnc(NC(=O)c2ccc(SC)cc2)cn1 [Compound 119, N-[5-(5-Methoxy-2-trifluoromethyl-benzoimidazol-1-yl)-pyrazin-2-yl]-4-methylsulfanyl-benzamide] | 50 nM
10 | COc1ccc(C(=O)Nc2cnc(-n3c(C(F)(F)F)nc4cc(OC)ccc43)cn2)cc1 [Compound 120, 4-Methoxy-N-[5-(5-methoxy-2-trifluoromethyl-benzoimidazol-1-yl)-pyrazin-2-yl]-benzamide] | 295 nM
11 | COc1ccc2c(c1)nc(C(F)(F)F)n2-c1cnc(NC(=O)c2cc(C)cc(C)c2)cn1 [Compound 121, N-[5-(5-Methoxy-2-trifluoromethyl-benzoimidazol-1-yl)-pyrazin-2-yl]-3,5-dimethyl-benzamide] | > 1000 nM
12 | COc1ccc2c(c1)nc(C(F)(F)F)n2-c1cnc(NC(=O)c2cc(C)ccc2C)cn1 [Compound 122, N-[5-(5-Methoxy-2-trifluoromethyl-benzoimidazol-1-yl)-pyrazin-2-yl]-2,5-dimethyl-benzamide] | 73 nM
13 | CCOc1ccccc1C(=O)Nc1cnc(-n2c(C(F)(F)F)nc3cc(OC)ccc32)cn1 [Compound 123, 2-Ethoxy-N-[5-(5-methoxy-2-trifluoromethyl-benzoimidazol-1-yl)-pyrazin-2-yl]-benzamide] | > 1000 nM
14 | COc1ccc(C(=O)Nc2cnc(-n3c(C(F)(F)F)nc4cc(OC)ccc43)cn2)c(OC)c1 [Compound 124, 2,4-Dimethoxy-N-[5-(5-methoxy-2-trifluoromethyl-benzoimidazol-1-yl)-pyrazin-2-yl]-benzamide] | > 1000 nM
15 | COc1ccc2c(c1)nc(C(F)(F)F)n2-c1cnc(NC(=O)c2cccc(C(F)(F)F)c2)cn1 [Compound 125, N-[5-(5-Methoxy-2-trifluoromethyl-benzoimidazol-1-yl)-pyrazin-2-yl]-3-trifluoromethyl-benzamide] | 780 nM
16 | COc1ccc2c(c1)nc(C(F)(F)F)n2-c1cnc(NC(=O)c2ccc(OC)c(OC)c2)cn1 [Compound 126, 3,4-Dimethoxy-N-[5-(5-methoxy-2-trifluoromethyl-benzoimidazol-1-yl)-pyrazin-2-yl]-benzamide] | > 1000 nM
17 | COc1ccc(C(=O)Nc2cnc(-n3c(C(F)(F)F)nc4cc(OC)ccc43)cn2)c(F)c1 [Compound 127, 2-Fluoro-4-methoxy-N-[5-(5-methoxy-2-trifluoromethyl-benzoimidazol-1-yl)-pyrazin-2-yl]-benzamide] | 105 nM
18 | COc1ccc2c(c1)nc(C(F)(F)F)n2-c1cnc(NC(=O)c2cccc(OC)c2OC)cn1 [Compound 128, 2,3-Dimethoxy-N-[5-(5-methoxy-2-trifluoromethyl-benzoimidazol-1-yl)-pyrazin-2-yl]-benzamide] | 187 nM

Row | Structure (SMILES) | IC50
19 | COc1cc(OC)cc(C(=O)Nc2cnc(-n3c(C(F)(F)F)nc4cc(OC)ccc43)cn2)c1 [Compound 129, 3,5-Dimethoxy-N-[5-(5-methoxy-2-trifluoromethyl-benzoimidazol-1-yl)-pyrazin-2-yl]-benzamide] | > 1000 nM
20 | COc1ccc2c(c1)nc(C(F)(F)F)n2-c1cnc(NC(=O)c2cc(Br)ccc2F)cn1 [Compound 130, 5-Bromo-2-fluoro-N-[5-(5-methoxy-2-trifluoromethyl-benzoimidazol-1-yl)-pyrazin-2-yl]-benzamide] | 130 nM
21 | CCCCCc1ccc(C(=O)Nc2cnc(-n3c(C(F)(F)F)nc4cc(OC)ccc43)cn2)cc1 [Compound 131, N-[5-(5-Methoxy-2-trifluoromethyl-benzoimidazol-1-yl)-pyrazin-2-yl]-4-pentyl-benzamide] | 331 nM
22 | COc1ccc2c(c1)nc(C(F)(F)F)n2-c1cnc(NC(=O)c2ccc(C(C)(C)C)cc2)cn1 [Compound 132, 4-tert-Butyl-N-[5-(5-methoxy-2-trifluoromethyl-benzoimidazol-1-yl)-pyrazin-2-yl]-benzamide] | > 1000 nM
23 | CCOc1ccc(C(=O)Nc2cnc(-n3c(C(F)(F)F)nc4cc(OC)ccc43)cn2)cc1 [Compound 133, 4-Ethoxy-N-[5-(5-methoxy-2-trifluoromethyl-benzoimidazol-1-yl)-pyrazin-2-yl]-benzamide] | > 1000 nM
24 | COc1ccc2c(c1)nc(C(F)(F)F)n2-c1cnc(NC(=O)c2ccc(Cl)cc2OC)cn1 [Compound 134, 4-Chloro-2-methoxy-N-[5-(5-methoxy-2-trifluoromethyl-benzoimidazol-1-yl)-pyrazin-2-yl]-benzamide] | > 1000 nM
25 | COc1ccc2c(c1)nc(C(F)(F)F)n2-c1cnc(NC(=O)c2cccc([N+](=O)[O-])c2C)cn1 [Compound 135, N-[5-(5-Methoxy-2-trifluoromethyl-benzoimidazol-1-yl)-pyrazin-2-yl]-2-methyl-3-nitro-benzamide] | 103 nM
26 | COc1ccc2c(c1)nc(C(F)(F)F)n2-c1cnc(NC(=O)c2cc(OC)c(OC)cc2OC)cn1 [Compound 136, 2,4,5-Trimethoxy-N-[5-(5-methoxy-2-trifluoromethyl-benzoimidazol-1-yl)-pyrazin-2-yl]-benzamide] | > 1000 nM
27 | COc1ccc2c(c1)nc(C(F)(F)F)n2-c1cnc(NC(=O)c2ccc(C(F)(F)F)cc2)cn1 [Compound 137, N-[5-(5-Methoxy-2-trifluoromethyl-benzoimidazol-1-yl)-pyrazin-2-yl]-4-trifluoromethyl-benzamide] | 714 nM
28 | COc1ccc2c(c1)nc(C(F)(F)F)n2-c1cnc(NC(=O)c2ccc(F)cc2Br)cn1 [Compound 138, 2-Bromo-4-fluoro-N-[5-(5-methoxy-2-trifluoromethyl-benzoimidazol-1-yl)-pyrazin-2-yl]-benzamide] | 83 nM
29 | COc1ccc2c(c1)nc(C(F)(F)F)n2-c1cnc(NC(=O)c2ccc(Cl)c([N+](=O)[O-])c2)cn1 [Compound 139, 4-Chloro-N-[5-(5-methoxy-2-trifluoromethyl-benzoimidazol-1-yl)-pyrazin-2-yl]-3-nitro-benzamide] | > 1000 nM
30 | COc1ccc2c(c1)nc(C(F)(F)F)n2-c1cnc(NC(=O)c2ccc(C)c([N+](=O)[O-])c2)cn1 [Compound 140, N-[5-(5-Methoxy-2-trifluoromethyl-benzoimidazol-1-yl)-pyrazin-2-yl]-4-methyl-3-nitro-benzamide] | 192 nM
31 | COc1ccc2c(c1)nc(C(F)(F)F)n2-c1cnc(NC(=O)c2ccc(C(C)C)cc2)cn1 [Compound 141, 4-Isopropyl-N-[5-(5-methoxy-2-trifluoromethyl-benzoimidazol-1-yl)-pyrazin-2-yl]-benzamide] | > 1000 nM
32 | COc1ccc2c(c1)nc(C(F)(F)F)n2-c1cnc(NC(=O)c2cccc(C)c2[N+](=O)[O-])cn1 [Compound 142, N-[5-(5-Methoxy-2-trifluoromethyl-benzoimidazol-1-yl)-pyrazin-2-yl]-3-methyl-2-nitro-benzamide] | 324 nM
33 | COc1ccc2c(c1)nc(C(F)(F)F)n2-c1cnc(NC(=O)c2cc(F)c(F)cc2F)cn1 [Compound 143, 2,4,5-Trifluoro-N-[5-(5-methoxy-2-trifluoromethyl-benzoimidazol-1-yl)-pyrazin-2-yl]-benzamide] | 178 nM
34 | COc1ccc2c(c1)nc(C(F)(F)F)n2-c1cnc(NC(=O)c2ccc(C(F)(F)F)cc2OC)cn1 [Compound 144, 2-Methoxy-N-[5-(5-methoxy-2-trifluoromethyl-benzoimidazol-1-yl)-pyrazin-2-yl]-4-trifluoromethyl-benzamide] | > 1000 nM
35 | COc1ccc2c(c1)nc(C(F)(F)F)n2-c1cnc(NC(=O)c2ccccc2C(F)(F)F)cn1 [Compound 145, N-[5-(5-Methoxy-2-trifluoromethyl-benzoimidazol-1-yl)-pyrazin-2-yl]-2-trifluoromethyl-benzamide] | 99 nM
